This note sets out measurements from patent EP1210336B1, “SUBSTITUTED BENZIMIDAZOLES AS NON-NUCLEOSIDE INHIBITORS OF REVERSE TRANSCRIPTASE” (THE UNITED STATES OF AMERICA, as represented by the …, priority 1999, dated 2001).

pEC50, pIC50: −log10 of the molar value. Like-named read-outs stand apart in the source and are kept apart here. A value given as a limit tells only on which side of the number the result lay.

In general, pIC50 refers to −log10 of the IC50, conventionally taken in molar units. The pEC50 is the negative decadic logarithm of the EC50, by convention in mol/L.

One test addresses T1, HIV-1 WT RT (Human immunodeficiency virus type 1 group M subtype B, UniProt P03366).
T1 construct: purified RT protein (0.015 mg/mL) was incubated in a 100 µL reaction mixture
Description: biochemical. The settings on record: for pIC50: read-out: IC50.

For another test, the system named is WT virus (NL4-3). The experiment in a line: microbe, parasite or virus in culture. In kind it is cell-based, HIV-1. The note with it: for pEC50: Human immunodeficiency virus 1, NL43, CEM-SS, read-out: EC50. Here is the method:
Evaluation of these compounds for the inhibition of HIV-1 was determined as the fifty percent cell culture inhibitory concentration (CIC50) in CEMSS cell culture with WT virus (NL4-3).
(§1) In this Example, the antiviral and cellular toxicity of NNRTIs was investigated, using the cytopathic cell killing assay described by Yang (Yang et al., "Characteristics of a Group of Non-nucleoside Reverse Transcriptase Inhibitors with Structural Diversity and Potent Anti-Human Immunodeficiency Virus Activity," Leukemia 9:S75-S85 [1995]). Briefly, in this method cells (e.g., the CEM-SS cell line, available from the NIAID AIDS Research and Reference Program [ARRRP]) were seeded at a density of 5 x 10^3 cells/well, into the wells of a 96-well microtiter plate. The cells were then infected with HIV virus (either mutant or WT), at a multiplicity of infection (MOI) previously determined to provide complete cell killing by 6 days of culture post-infection (e.g., MOI of 0.01-0.05). Each of the HIV isolates was pre-titered to induce equivalent levels of infection based on cell killing or virus production, prior to their use in these assays. A range of test compound concentrations was added to the wells in triplicate (e.g., serial half-log dilutions) to evaluate inhibition of HIV infection. Controls for each assay included drug controls (drug colorimetric control wells), drug cytotoxicity control wells (cells with drug), virus control wells (cells with virus), and cell viability controls (cells only). Positive control drugs (e.g., AZT and ddC) were also run in parallel.
(§2) After six days of incubation at 37°C, cell viability was determined spectrophotometrically at 450 nm for each well, using the metabolic reduction of XTT to a soluble colored formazan. (See, Gartner and Popovic, "Virus Isolation and Production, in Aldovini and Walker (eds.), Techniques in HIV Research, Stockton Press, NY, pp. […] [1991]; and Nara and Fischinger, "Quantitative Infectivity Assay for HIV-1 and HIV-2," Nature 332:469-470 [1988]).
(§3) The in vitro therapeutic index (TI50) was defined as the fold-difference between the EC50 and IC50. The results for the various compounds are included in Figures 8 and 19.

The next test concerns NL4-3 (WT). Description: Cytopathic cell killing assay, cross-resistance profile, infected MT-4 cells. The format is cell-based, HIV-1.
Excerpt: (§4) The various HIV isolates tested in the Figures are those corresponding to wild-type virus (NL4-3) and the other strains listed by their RT mutations. The three 4xAZT isolates included in the Figures represent AZT drug-resistant variants. For example, the 4xAZT/L100I isolate has five mutations: four mutations confer increased resistance to AZT, and the other mutation is located within the NNRTI binding pocket. TZB and nevir. (nevirapine) are two well-known NNRTIs, included in this experiment for comparison purposes. […]
as §1, §2, §3
(Cytopathic effects are the visible damage that an infection or toxin causes in cultured cells.)

The subject of test [1] is HIV-1 isolate 4xAZT/Y181C. Described as above. In kind it is cell-based.
Excerpt: as §4, §1, §2, §3

The next test has as its system HIV-1 isolate 4xAZT. Described as above. In kind it is cell-based.
Excerpt: as §4, §1, §2, §3

Another test has as its system HIV-1 variant A98G. The description is as above. The format is cell-based.
Excerpt: as §4, §1, §2, §3

The next test concerns HIV-1 variant K101E. The description is as above. The format is cell-based.
Excerpt: as §4, §1, §2, §3

The test system of another test is HIV-1 variant K103N. Described as above. In kind it is cell-based. The settings on record: isolate K103N.
Excerpt: as §4, §1, §2, §3

Another test relates to HIV-1 variant L100I. The test is described as above. The format is cell-based.
Excerpt: as §4, §1, §2, §3

A further test relates to HIV-1 variant L74V. The description is as above. In kind it is cell-based.
Excerpt: as §4, §1, §2, §3

A further test has as its system HIV-1 variant V106A. The test is described as above. In kind it is cell-based.
Excerpt: as §4, §1, §2, §3

The subject of another test is HIV-1 variant V108I. The test is described as above. The format is cell-based.
Excerpt: as §4, §1, §2, §3

Another test has as its system HIV-1 variant V179D. Described as above. The note with it: isolate V179D. The format is cell-based.
Excerpt: as §4, §1, §2, §3

The subject of another test is HIV-1 variant Y181C. The description is as above. In kind it is cell-based. The settings on record: isolate Y181C.
Excerpt: as §4, §1, §2, §3

For the next test, the system named is HIV-1 variant Y188C. The test is described as above. The format is cell-based.
Excerpt: as §4, §1, §2, §3

In test [2] the test system is HIV-1 isolate 4xAZT/L100I. The description is as above. The format is cell-based. The procedure: The various HIV isolates tested in the Figures are those corresponding to wild-type virus (NL4-3) and the other strains listed by their RT mutations. The three 4xAZT isolates included in the Figures represent AZT drug-resistant variants. […]
as §1, with “Briefly,” for “In this Example, the antiviral and cellular toxicity of NNRTIs was investigated, using the cytopathic cell killing assay described by Yang (Yang et al., "Characteristics of a Group of Non-nucleoside Reverse Transcriptase Inhibitors with Structural Diversity and Potent Anti-Human Immunodeficiency Virus Activity," Leukemia 9:S75-S85 [1995]). Briefly,”
as §2
The in vitro therapeutic index (TI50) was defined as the fold-difference between the EC50 and IC50.

[3] abbreviates: Table 11, CEMSS/NL4-3, NRVC = reduction in viral CPE not seen (footnote).
[4] abbreviates: Human immunodeficiency virus 1, MT4, Table 4.
Setting [5] is: Human immunodeficiency virus 1, MT4, Table 9.
Setting [6] is: Table 7, concentration reducing cell killing or virus production by 50%, HIV-1 WT.
Where [7] appears, read: Human immunodeficiency virus 1, NL43, MT4, Table 8, isolate N1.43.
Where [8] appears, read: Human immunodeficiency virus 1, MT4, Table 8, isolate 4XAZT /Y181C.
Setting [9] is: Human immunodeficiency virus 1, MT4, Table 8, isolate 4XAZT.
Where [10] appears, read: Human immunodeficiency virus 1, MT4, Table 8, isolate A9SG.
The mark [11] stands for this setting: Human immunodeficiency virus 1, MT4, Table 8, isolate K101E.
The mark [12] stands for this setting: Human immunodeficiency virus 1, MT4, Table 8.
The mark [13] stands for this setting: Human immunodeficiency virus 1, MT4, Table 8, isolate 1.1001.
The mark [14] stands for this setting: Human immunodeficiency virus 1, MT4, Table 8, isolate 1.74V.
Setting [15] is: Human immunodeficiency virus 1, MT4, Table 8, isolate V 106A.
Setting [16] is: Human immunodeficiency virus 1, MT4, Table 8, isolate V1081.
The mark [17] stands for this setting: Human immunodeficiency virus 1, MT4, Table 8, isolate Y 188C.
The mark [18] stands for this setting: Human immunodeficiency virus 1, MT4, Table 8, isolate 4XA7T L 1001.

As to `Fc1cccc(F)c1Cn1c(-c2c(F)cccc2F)nc2ccccc21` [compound 26, 1-(2,6-difluorobenzyl)-2-(2,6-difluorophenyl)benzimidazole], the inhibition at 10 µM at HIV-1 WT RT (Table 1, WT RT, 10 µM drug concentration, read-out: %inhibn (10µM)) amounted to 93%. The negative logarithm of the IC50 (pIC50) on HIV-1 WT RT (Table 1, quantity of drug required to reduce WT RT enzyme activity by 50%) was 6.96; on HIV-1 WT RT (Table 11, WT RT) it was 6.96. Also, the “%inhibn (10µM)” value at HIV-1 WT RT (Table 2, WT RT, 10 µM drug concentration) is 93%. The pEC50 is 5.77 in the test on WT virus (NL4-3) (setting [3]); 5.73 in the test with NL4-3 (WT) (Human immunodeficiency virus 1, NL43, MT4, Table 4, isolate NL4-3 (WT)); 5.66 in the test on NL4-3 (WT) (Human immunodeficiency virus 1, NL43, MT4, Table 9, isolate NL4.3); < 4.70 in test [1] (Human immunodeficiency virus 1, MT4, Table 4, isolate 4xAZT/Y181C); 4.70 in [1] (Human immunodeficiency virus 1, MT4, Table 9, isolate 4XAZT /Y181C); 6.57 in the test on HIV-1 isolate 4xAZT (Human immunodeficiency virus 1, MT4, Table 4, isolate 4xAZT). Also, the pEC50 in the test with HIV-1 isolate 4xAZT (Human immunodeficiency virus 1, MT4, Table 9, isolate 4XAZT) was 6.52; with HIV-1 variant A98G (Human immunodeficiency virus 1, MT4, Table 4, isolate A98G) it was 5.32; in the test with HIV-1 variant A98G (Human immunodeficiency virus 1, MT4, Table 9, isolate A98G), 5.33; with HIV-1 variant K101E (Human immunodeficiency virus 1, MT4, Table 4, isolate K101E), < 4.70; in the test with HIV-1 variant K101E (Human immunodeficiency virus 1, MT4, Table 9, isolate KIOIE) it was < 4.70; with HIV-1 variant K103N (setting [4]), 4.89. Also, the pEC50 with HIV-1 variant K103N (setting [5]) was < 5.00; in the test on HIV-1 variant L100I (Human immunodeficiency virus 1, MT4, Table 4, isolate L1001) it was 5.87; with HIV-1 variant L100I (Human immunodeficiency virus 1, MT4, Table 9, isolate L1001), 5.89; in the test with HIV-1 variant L74V (Human immunodeficiency virus 1, MT4, Table 4, isolate L74V) it was 6.34; in the test with HIV-1 variant L74V (Human immunodeficiency virus 1, MT4, Table 9, isolate 1.74 V), 5.72; in the test on HIV-1 variant V106A (Human immunodeficiency virus 1, MT4, Table 4, isolate V106A), < 4.70. For the same molecule, the pEC50 was < 4.70 in the test on HIV-1 variant V106A (Human immunodeficiency virus 1, MT4, Table 9, isolate V106A); 4.98 with HIV-1 variant V108I (Human immunodeficiency virus 1, MT4, Table 4, isolate V108I); < 5.00 in the test on HIV-1 variant V108I (Human immunodeficiency virus 1, MT4, Table 9, isolate V1081); 5.64 in the test on HIV-1 variant V179D (setting [4]); 5.54 with HIV-1 variant V179D (setting [5]); 4.82 with HIV-1 variant Y181C (setting [4]). The pEC50 with HIV-1 variant Y181C (setting [5]) is 4.85; in the test with HIV-1 variant Y188C (Human immunodeficiency virus 1, MT4, Table 4, isolate Y188C) it was 4.93; in the test on HIV-1 variant Y188C (Human immunodeficiency virus 1, MT4, Table 9, isolate Y188C), < 5.00; in [2] (Human immunodeficiency virus 1, MT4, Table 4, isolate 4xAZT/L.1001), 6.08; in test [2] (Human immunodeficiency virus 1, MT4, Table 9, isolate 4XAZT /L1001), 6.05.
On to `CC(=O)N(C)c1cccc2c1nc(-c1c(F)cccc1F)n2Cc1c(F)cccc1F` [compound 57, 1-(2,6-Difluorobenzyl)-2-(2,6-difluorophenyl)-4-(N-methylacetamido)-benzimidazole], for which the pEC50 was 7.70 with WT virus (NL4-3) (setting [6]); 7.70 in the test on WT virus (NL4-3) (setting [3]); 7.70 with WT virus (NL4-3) (cytopathic cell killing assay, HIV-1 WT); 7.40 with NL4-3 (WT) (setting [7]); < 5.00 in [1] (setting [8]); < 5.00 in the test with HIV-1 isolate 4xAZT (setting [9]). For the same molecule, the negative logarithm of the EC50 (pEC50) with HIV-1 variant A98G (setting [10]) was 7.00; in the test on HIV-1 variant K101E (setting [11]) it was 6.22; in the test on HIV-1 variant K103N (setting [12]) it was < 5.00; in the test with HIV-1 variant L100I (setting [13]), 5.77; in the test on HIV-1 variant L74V (setting [14]), 7.15; with HIV-1 variant V106A (setting [15]) it was 7.30. The pEC50 with HIV-1 variant V108I (setting [16]) is < 5.00; with HIV-1 variant V179D (setting [12]) it was 6.40; with HIV-1 variant Y188C (setting [17]), 6.30; in [2] (setting [18]) it was 5.74. For the same molecule, in the test with WT virus (NL4-3) (cytopathic cell killing assay), the “-fold more potent than the 4-methyl or 4-amino compounds” value is 20 fold.
Consider `CNc1cccc2c1nc(-c1c(F)cccc1F)n2Cc1c(F)cccc1F` [compound 58, 1-(2,6-Difluorobenzyl)-2-(2,6-difluorophenyl)-4-(N-methylamino)-benzimidazole], for which the pEC50 with WT virus (NL4-3) (setting [6]) was 5.77; in the test on WT virus (NL4-3) (setting [3]), 5.77; with NL4-3 (WT) (setting [7]), 5.59; in test [1] (setting [8]), < 4.70; in the test with HIV-1 isolate 4xAZT (setting [9]), < 5.00; in the test on HIV-1 variant A98G (setting [10]), 5.07. Also, the pEC50 in the test on HIV-1 variant K101E (setting [11]) was < 4.70; in the test on HIV-1 variant K103N (setting [12]), < 4.70; in the test on HIV-1 variant L100I (setting [13]) it was 6.40; in the test with HIV-1 variant L74V (setting [14]) it was 5.41; in the test on HIV-1 variant V106A (setting [15]) it was < 4.70; in the test on HIV-1 variant V108I (setting [16]) it was < 4.70. The pEC50 was < 5.00 in the test with HIV-1 variant V179D (setting [12]), < 4.70 in the test on HIV-1 variant Y188C (setting [17]) and 6.00 in test [2] (setting [18]).
